Measured values taken from US20170190671A1, “BIS(ARYL)CATECHOL DERIVATIVES AS HERBICIDES” (E I DU PONT DE NEMOURS AND COMPANY, priority 2014, published 2017).

Legend:
Format in all cases: in vivo
[1] = tested on: giant foxtail (Setaria faberii); assay: Test A preemergence; conditions: Setaria faberi, pre-emergence, 240 h
Outline: (§1)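 Scoring: eye-based comparison with untreated controls, 0 for no effect through 100 for complete control, at about day 10. Treatments: directed soil spray preemergence; foliar spray postemergence on 2–10 cm plants at the one- to two-leaf stage. Medium: loam soil with sand.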

[2] = tested on: pigweed (Amaranthus retroflexus); assay: Test A preemergence; conditions: Amaranthus retroflexus, pre-emergence, 240 h
Outline: as §1

[3] = tested on: ragweed (common ragweed, Ambrosia elatior); assay: Test A preemergence; conditions: Ambrosia artemisiifolia, pre-emergence, 240 h
Outline: as §1

[4] = tested on: kochia (Kochia scoparia); assay: Test A preemergence; conditions: Bassia scoparia, pre-emergence, 240 h
Outline: as §1

[5] = tested on: Italian ryegrass (Lolium multiflorum); assay: Test A preemergence; conditions: Lolium multiflorum, pre-emergence, 240 h
Outline: as §1

[6] = tested on: barnyardgrass (Echinochloa crus-galli); assay: Test A preemergence; conditions: Echinochloa crus-galli, pre-emergence, 240 h
Outline: as §1

[7] = tested on: ducksalad (Heteranthera limosa); assay: Test B flooded paddy; conditions: Heteranthera limosa, 336 h; 250 g ai/ha, Flood, 13 to 15 days, scale 0 (no effect) to 100 (complete control); read-out: Plant response rating, Ducksalad
Outline: (§2)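 Pots were flooded to 3 cm above the soil surface at treatment, compound applied directly to the paddy water, and that depth held throughout. Plants were kept in a greenhouse for 13 to 15 days, then visually rated against untreated controls.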

[8] = tested on: sedge, umbrella (small-flower umbrella sedge, Cyperus difformis); assay: Test B flooded paddy; conditions: Cyperus difformis, 336 h; 250 g ai/ha, Flood, 13 to 15 days, scale 0 (no effect) to 100 (complete control); read-out: Plant response rating, Sedge, Umbrella
Outline: as §2

[9] = tested on: rice (Oryza sativa); assay: Test B flooded paddy; conditions: Oryza sativa, 336 h; 250 g ai/ha, Flood, 13 to 15 days, scale 0 (no effect) to 100 (complete control); read-out: Plant response rating, Rice
Outline: as §2

[10] = tested on: barnyardgrass (Echinochloa crus-galli); assay: Test B flooded paddy; conditions: Echinochloa crus-galli, 336 h; 250 g ai/ha, Flood, 13 to 15 days, scale 0 (no effect) to 100 (complete control); read-out: Plant response rating, Barnyardgrass
Outline: as §2

[11] = tested on: giant foxtail (Setaria faberii); assay: Test A postemergence; conditions: Setaria faberi, post-emergence, 240 h, 0 to 100 scale, read-out: Plant response rating, Foxtail, Giant
Outline: as §1

[12] = tested on: pigweed (Amaranthus retroflexus); assay: Test A postemergence; conditions: Amaranthus retroflexus, post-emergence, 240 h, 0 to 100 scale, read-out: Plant response rating, Pigweed
Outline: as §1

[13] = tested on: galium (catchweed bedstraw, Galium aparine); assay: Test A postemergence; conditions: Galium, post-emergence, 240 h, 0 to 100 scale, read-out: Plant response rating, Galium
Outline: as §1

[14] = tested on: ragweed (common ragweed, Ambrosia elatior); assay: Test A postemergence; conditions: Ambrosia artemisiifolia, post-emergence, 240 h, 0 to 100 scale, read-out: Plant response rating, Ragweed
Outline: as §1

[15] = tested on: blackgrass (Alopecurus myosuroides); assay: Test A postemergence; conditions: Alopecurus myosuroides, post-emergence, 240 h, 0 to 100 scale, read-out: Plant response rating, Blackgrass
Outline: as §1

[16] = tested on: kochia (Kochia scoparia); assay: Test A postemergence; conditions: Bassia scoparia, post-emergence, 240 h, 0 to 100 scale, read-out: Plant response rating, Kochia
Outline: as §1

[17] = tested on: corn (Zea mays); assay: Test A postemergence; conditions: Zea mays, post-emergence, 240 h, 0 to 100 scale
Outline: as §1

[18] = tested on: wheat (Triticum aestivum); assay: Test A postemergence; conditions: Triticum aestivum, post-emergence, 240 h, 0 to 100 scale, read-out: Plant response rating, Wheat
Outline: as §1

[19] = tested on: Italian ryegrass (Lolium multiflorum); assay: Test A postemergence; conditions: Lolium multiflorum, post-emergence, 240 h, 0 to 100 scale, read-out: Plant response rating, Ryegrass, Italian
Outline: as §1

[20] = tested on: barnyardgrass (Echinochloa crus-galli); assay: Test A postemergence; conditions: Echinochloa crus-galli, post-emergence, 240 h, 0 to 100 scale, read-out: Plant response rating, Barnyardgrass
Outline: as §1

`N#Cc1cccc(Oc2ncc(Br)cn2)c1Oc1ccc(Cl)cn1` [Compound 11] was tested, and the pest or weed control at 31 g/ha ([1]; 31 g ai/ha, 0 to 100 scale (0 no effect, 100 complete control), read-out: Foxtail, Giant plant response rating) was 20%, the pest or weed control at 125 g/ha ([1]; 125 g ai/ha, 0 to 100 scale, read-out: Plant response rating, Foxtail, Giant) was 100% and the pest or weed control at 500 g/ha ([1]; 500 g ai/ha, 0 to 100 scale, read-out: Plant response rating, Foxtail, Giant) was 100%. The pest or weed control at 31 g/ha ([2]; 31 g ai/ha, 0 to 100 scale (0 no effect, 100 complete control), read-out: Pigweed plant response rating) was 90%, the pest or weed control at 125 g/ha ([2]; 125 g ai/ha, 0 to 100 scale, read-out: Plant response rating, Pigweed) was 100% and the pest or weed control at 500 g/ha ([2]; 500 g ai/ha, 0 to 100 scale, read-out: Plant response rating, Pigweed) was 100%. For the same compound, the pest or weed control at 31 g/ha ([3]; 31 g ai/ha, 0 to 100 scale (0 no effect, 100 complete control), read-out: Ragweed plant response rating) was 0%, the pest or weed control at 125 g/ha ([3]; 125 g ai/ha, 0 to 100 scale, read-out: Plant response rating, Ragweed) was 0% and the pest or weed control at 500 g/ha ([3]; 500 g ai/ha, 0 to 100 scale, read-out: Plant response rating, Ragweed) was 10%. It also gave a pest or weed control at 31 g/ha ([4]; 31 g ai/ha, 0 to 100 scale (0 no effect, 100 complete control), read-out: Kochia plant response rating) of 10%, a pest or weed control at 125 g/ha ([4]; 125 g ai/ha, 0 to 100 scale, read-out: Plant response rating, Kochia) of 75% and a pest or weed control at 500 g/ha ([4]; 500 g ai/ha, 0 to 100 scale, read-out: Plant response rating, Kochia) of 100%. It also gave a pest or weed control at 31 g/ha ([5]; 31 g ai/ha, 0 to 100 scale (0 no effect, 100 complete control), read-out: Ryegrass, Italian plant response rating) of 0%, a pest or weed control at 125 g/ha ([5]; 125 g ai/ha, 0 to 100 scale, read-out: Plant response rating, Ryegrass, Italian) of 10% and a pest or weed control at 500 g/ha ([5]; 500 g ai/ha, 0 to 100 scale, read-out: Plant response rating, Ryegrass, Italian) of 90%. The pest or weed control at 31 g/ha ([6]; 31 g ai/ha, 0 to 100 scale (0 no effect, 100 complete control), read-out: Barnyardgrass plant response rating) was 0%, the pest or weed control at 125 g/ha ([6]; 125 g ai/ha, 0 to 100 scale, read-out: Plant response rating, Barnyardgrass) was 80% and the pest or weed control at 500 g/ha ([6]; 500 g ai/ha, 0 to 100 scale, read-out: Plant response rating, Barnyardgrass) was 100%. The pest or weed control at 250 g/ha [7] was 100%, the pest or weed control at 250 g/ha [8] was 85% and the plant injury at 250 g/ha [9] was 0%. It also gave a pest or weed control at 250 g/ha [10] of 0%, a pest or weed control at 31 g/ha ([11]; 31 g ai/ha) of 0% and a pest or weed control at 125 g/ha ([11]; 125 g ai/ha) of 95%. The pest or weed control at 500 g/ha ([11]; 500 g ai/ha) was 100%, the pest or weed control at 31 g/ha ([12]; 31 g ai/ha) was 100% and the pest or weed control at 125 g/ha ([12]; 125 g ai/ha) was 100%. It also gave a pest or weed control at 500 g/ha ([12]; 500 g ai/ha) of 100%, a pest or weed control at 31 g/ha ([13]; 31 g ai/ha) of 70% and a pest or weed control at 125 g/ha ([13]; 125 g ai/ha) of 100%. For the same compound, the pest or weed control at 500 g/ha ([13]; 500 g ai/ha) was 100%, the pest or weed control at 31 g/ha ([14]; 31 g ai/ha) was 0% and the pest or weed control at 125 g/ha ([14]; 125 g ai/ha) was 10%. It also gave a pest or weed control at 500 g/ha ([14]; 500 g ai/ha) of 10%, a pest or weed control at 31 g/ha ([15]; 31 g ai/ha) of 10% and a pest or weed control at 125 g/ha ([15]; 125 g ai/ha) of 90%. The pest or weed control at 500 g/ha ([15]; 500 g ai/ha) was 100%, the pest or weed control at 31 g/ha ([16]; 31 g ai/ha) was 40% and the pest or weed control at 125 g/ha ([16]; 125 g ai/ha) was 95%. The pest or weed control at 500 g/ha ([16]; 500 g ai/ha) was 100%, the Corn plant response rating (crop injury, 0 = no effect, 100 = complete kill) at 31 g/ha ([17]; 31 g ai/ha) was 10% and the Corn plant response rating (crop injury, 0 = no effect, 100 = complete kill) at 125 g/ha ([17]; 125 g ai/ha) was 30%. The Corn plant response rating (crop injury, 0 = no effect, 100 = complete kill) at 500 g/ha ([17]; 500 g ai/ha) was 100%, the plant injury at 31 g/ha ([18]; 31 g ai/ha) was 20% and the plant injury at 125 g/ha ([18]; 125 g ai/ha) was 50%. The plant injury at 500 g/ha ([18]; 500 g ai/ha) was 90%, the pest or weed control at 31 g/ha ([19]; 31 g ai/ha) was 0% and the pest or weed control at 125 g/ha ([19]; 125 g ai/ha) was 25%. The pest or weed control at 500 g/ha ([19]; 500 g ai/ha) was 90%, the pest or weed control at 31 g/ha ([20]; 31 g ai/ha) was 0% and the pest or weed control at 125 g/ha ([20]; 125 g ai/ha) was 80%. It also gave a pest or weed control at 500 g/ha ([20]; 500 g ai/ha) of 100%.
